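Grown in 96-well plates, cells were treated for 48 hours with each compound at five concentrations. Insufficient inhibition: endpoint recorded as highest concentration tested. At the GI50, growth is halved. TGI: concentration producing complete growth inhibition.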
Key:
Assay in all cases: NCI tumour cell line growth inhibition, 48 h
786-0 renal = test system: 786-0 renal
A498 renal = test system: A498 renal
A549 NSCLC = test system: A549 NSCLC
ACHN renal = test system: ACHN renal
BT-549 breast = test system: BT-549 breast
CAKI-1 renal = test system: CAKI-1 renal
CCRF-CEM leukemia = test system: CCRF-CEM leukemia
COLO 205 colon = test system: COLO 205 colon
DU-145 prostate = test system: DU-145 prostate
EKVX NSCLC = test system: EKVX NSCLC
HCC-2998 colon = test system: HCC-2998 colon
HCT-116 colon = test system: HCT-116 colon
HCT-15 colon = test system: HCT-15 colon
HL-60(TB) leukemia = test system: HL-60(TB) leukemia
HOP-62 NSCLC = test system: HOP-62 NSCLC
HOP-92 NSCLC = test system: HOP-92 NSCLC
HS 578T breast = test system: HS 578T breast
HT29 colon = test system: HT29 colon
IGROV1 ovarian = test system: IGROV1 ovarian
K-562 leukemia = test system: K-562 leukemia
KM12 colon = test system: KM12 colon
LOX IMVI melanoma = test system: LOX IMVI melanoma
M14 melanoma = test system: M14 melanoma
MALME-3M melanoma = test system: MALME-3M melanoma
MCF7 breast = test system: MCF7 breast
MDA-MB-231 breast = test system: MDA-MB-231 breast
MDA-MB-435 = test system: MDA-MB-435
MOLT-4 leukemia = test system: MOLT-4 leukemia
NCI-H226 lung = test system: NCI-H226 lung
NCI-H23 lung = test system: NCI-H23 lung
NCI-H460 lung = test system: NCI-H460 lung
NCI/ADR-RES ovarian = test system: NCI/ADR-RES ovarian
OVCAR-3 ovarian = test system: OVCAR-3 ovarian
OVCAR-4 ovarian = test system: OVCAR-4 ovarian
OVCAR-5 ovarian = test system: OVCAR-5 ovarian
OVCAR-8 ovarian = test system: OVCAR-8 ovarian
PC-3 prostate = test system: PC-3 prostate
RPMI-8226 leukemia = test system: RPMI-8226 leukemia
RXF 393 renal = test system: RXF 393 renal
SF-268 CNS = test system: SF-268 CNS
SF-295 CNS = test system: SF-295 CNS
SF-539 CNS = test system: SF-539 CNS
SK-MEL-2 melanoma = test system: SK-MEL-2 melanoma
SK-MEL-28 melanoma = test system: SK-MEL-28 melanoma
SK-MEL-5 melanoma = test system: SK-MEL-5 melanoma
SK-OV-3 ovarian = test system: SK-OV-3 ovarian
SNB-19 CNS = test system: SNB-19 CNS
SNB-75 CNS = test system: SNB-75 CNS
SR leukemia = test system: SR leukemia
SW-620 colon = test system: SW-620 colon
T-47D breast = test system: T-47D breast
TK-10 renal = test system: TK-10 renal
U251 CNS = test system: U251 CNS
UACC-257 melanoma = test system: UACC-257 melanoma
UACC-62 melanoma = test system: UACC-62 melanoma
UO-31 renal = test system: UO-31 renal
NCI-H522 lung = test system: NCI-H522 lung
SN12C renal = test system: SN12C renal

## Cn1c(-c2cccc([N+](=O)[O-])c2)[n+](C)c2ccccc21
786-0 renal
  TGI: > 100 µM
A498 renal
  TGI: > 100 µM
A549 NSCLC
  TGI: > 100 µM
ACHN renal
  TGI: > 100 µM
BT-549 breast
  TGI: > 100 µM
CAKI-1 renal
  TGI: > 100 µM
CCRF-CEM leukemia
  TGI: > 100 µM
COLO 205 colon
  TGI: > 100 µM
DU-145 prostate
  TGI: > 100 µM
EKVX NSCLC
  TGI: > 100 µM
HCC-2998 colon
  TGI: > 100 µM
HCT-116 colon
  TGI: > 100 µM
HCT-15 colon
  TGI: > 100 µM
HL-60(TB) leukemia
  TGI: > 100 µM
HOP-62 NSCLC
  TGI: > 100 µM
HOP-92 NSCLC
  TGI: > 100 µM
HS 578T breast
  TGI: > 100 µM
HT29 colon
  TGI: > 100 µM
IGROV1 ovarian
  TGI: > 100 µM
K-562 leukemia
  TGI: > 100 µM
KM12 colon
  TGI: > 100 µM
LOX IMVI melanoma
  TGI: > 100 µM
M14 melanoma
  TGI: > 100 µM
MALME-3M melanoma
  TGI: > 100 µM
MCF7 breast
  TGI: > 100 µM
MDA-MB-231 breast
  TGI: > 100 µM
MDA-MB-435
  TGI: > 100 µM
MOLT-4 leukemia
  TGI: > 100 µM
NCI-H226 lung
  TGI: > 100 µM
NCI-H23 lung
  TGI: > 100 µM
NCI-H460 lung
  TGI: > 100 µM
NCI/ADR-RES ovarian
  TGI: > 100 µM
OVCAR-3 ovarian
  TGI: > 100 µM
OVCAR-4 ovarian
  TGI: > 100 µM
OVCAR-5 ovarian
  TGI: > 100 µM
OVCAR-8 ovarian
  TGI: > 100 µM
PC-3 prostate
  TGI: > 100 µM
RPMI-8226 leukemia
  TGI: > 100 µM
RXF 393 renal
  TGI: > 100 µM
SF-268 CNS
  TGI: > 100 µM
SF-295 CNS
  TGI: > 100 µM
SF-539 CNS
  TGI: > 100 µM
SK-MEL-2 melanoma
  TGI: > 100 µM
SK-MEL-28 melanoma
  TGI: > 100 µM
SK-MEL-5 melanoma
  TGI: > 100 µM
SK-OV-3 ovarian
  TGI: > 100 µM
SNB-19 CNS
  TGI: > 100 µM
SNB-75 CNS
  TGI: > 100 µM
SR leukemia
  TGI: > 100 µM
SW-620 colon
  TGI: > 100 µM
T-47D breast
  TGI: > 100 µM
TK-10 renal
  TGI: > 100 µM
U251 CNS
  TGI: > 100 µM
UACC-257 melanoma
  TGI: > 100 µM
UACC-62 melanoma
  TGI: > 100 µM
UO-31 renal
  TGI: > 100 µM

## Cc1cnc(C(=O)Nc2nc3ccc(S(=O)(=O)Nc4ccc(C5(C(F)(F)F)CC5)cc4)cc3[nH]2)cn1
786-0 renal
  GI50: 0.484 µM
  TGI: 6.65 µM
A498 renal
  GI50: 0.228 µM
  TGI: 0.882 µM
A549 NSCLC
  GI50: 0.57 µM
  TGI: 9.66 µM
ACHN renal
  GI50: 0.552 µM
  TGI: 14 µM
BT-549 breast
  GI50: 0.965 µM
  TGI: 12.7 µM
CAKI-1 renal
  GI50: 0.36 µM
  TGI: 15.7 µM
CCRF-CEM leukemia
  GI50: 0.379 µM
  TGI: 22.8 µM
COLO 205 colon
  GI50: 0.414 µM
  TGI: 9.35 µM
DU-145 prostate
  GI50: 0.357 µM
  TGI: 2.23 µM
EKVX NSCLC
  GI50: 0.701 µM
  TGI: 9.34 µM
HCC-2998 colon
  GI50: 1.13 µM
  TGI: 10.4 µM
HCT-116 colon
  GI50: 0.452 µM
  TGI: 10.5 µM
HCT-15 colon
  GI50: 0.205 µM
  TGI: 5.09 µM
HL-60(TB) leukemia
  GI50: 0.296 µM
  TGI: 0.924 µM
HOP-62 NSCLC
  GI50: 0.622 µM
  TGI: 6.71 µM
HOP-92 NSCLC
  GI50: 0.387 µM
  TGI: 6.46 µM
HS 578T breast
  GI50: 0.367 µM
  TGI: 6.54 µM
HT29 colon
  GI50: 0.364 µM
  TGI: 10.9 µM
IGROV1 ovarian
  GI50: 0.606 µM
  TGI: 5.02 µM
K-562 leukemia
  GI50: 0.216 µM
  TGI: 12.7 µM
KM12 colon
  GI50: 0.309 µM
  TGI: 13 µM
LOX IMVI melanoma
  GI50: 0.539 µM
  TGI: 5.6 µM
M14 melanoma
  GI50: 0.328 µM
  TGI: 2.74 µM
MALME-3M melanoma
  GI50: 0.345 µM
  TGI: 8.65 µM
MCF7 breast
  GI50: 0.287 µM
  TGI: 5.68 µM
MDA-MB-231 breast
  GI50: 1.5 µM
  TGI: 15.6 µM
MDA-MB-435
  GI50: 0.0571 µM
  TGI: 0.238 µM
MOLT-4 leukemia
  GI50: 0.501 µM
  TGI: 14.5 µM
NCI-H226 lung
  GI50: 0.566 µM
  TGI: 6.34 µM
NCI-H23 lung
  GI50: 0.416 µM
  TGI: 5.98 µM
NCI-H460 lung
  GI50: 0.351 µM
  TGI: 3.95 µM
NCI-H522 lung
  GI50: 0.251 µM
  TGI: 11.2 µM
NCI/ADR-RES ovarian
  GI50: 0.26 µM
  TGI: 1.69 µM
OVCAR-3 ovarian
  GI50: 0.25 µM
  TGI: 1.34 µM
OVCAR-4 ovarian
  GI50: 2.07 µM
  TGI: 9.26 µM
OVCAR-5 ovarian
  GI50: 0.785 µM
  TGI: 10.9 µM
OVCAR-8 ovarian
  GI50: 0.722 µM
  TGI: 23.4 µM
PC-3 prostate
  GI50: 0.311 µM
  TGI: 4.39 µM
RPMI-8226 leukemia
  GI50: 0.354 µM
  TGI: 6.86 µM
RXF 393 renal
  GI50: 0.226 µM
  TGI: 1.11 µM
SF-268 CNS
  GI50: 0.733 µM
  TGI: 11.9 µM
SF-295 CNS
  GI50: 0.237 µM
  TGI: 3.27 µM
SF-539 CNS
  GI50: 0.314 µM
  TGI: 3.3 µM
SK-MEL-2 melanoma
  GI50: 0.784 µM
  TGI: 20.1 µM
SK-MEL-28 melanoma
  GI50: 1.19 µM
  TGI: 12.2 µM
SK-MEL-5 melanoma
  GI50: 0.232 µM
  TGI: 3.85 µM
SK-OV-3 ovarian
  GI50: 1.57 µM
  TGI: 22.7 µM
SN12C renal
  GI50: 0.519 µM
  TGI: 5.87 µM
SNB-19 CNS
  GI50: 0.553 µM
  TGI: 13.3 µM
SNB-75 CNS
  GI50: 0.183 µM
  TGI: 0.786 µM
SR leukemia
  GI50: 0.0777 µM
  TGI: > 39.5 µM
SW-620 colon
  GI50: 0.369 µM
  TGI: 5.92 µM
T-47D breast
  GI50: 0.596 µM
  TGI: 17.2 µM
TK-10 renal
  GI50: 1.48 µM
  TGI: 12 µM
U251 CNS
  GI50: 0.57 µM
  TGI: 5.4 µM
UACC-257 melanoma
  GI50: 5.13 µM
  TGI: 29.9 µM
UACC-62 melanoma
  GI50: 0.372 µM
  TGI: 6.99 µM
UO-31 renal
  GI50: 0.481 µM
  TGI: 6.2 µM

Source: PubChem BioAssay (NCI)
